For the assay, the target named is T1, glucocerebrosidase (Gcase) (Homo sapiens, UniProt P04062).
T1 sequence (P04062 40-536): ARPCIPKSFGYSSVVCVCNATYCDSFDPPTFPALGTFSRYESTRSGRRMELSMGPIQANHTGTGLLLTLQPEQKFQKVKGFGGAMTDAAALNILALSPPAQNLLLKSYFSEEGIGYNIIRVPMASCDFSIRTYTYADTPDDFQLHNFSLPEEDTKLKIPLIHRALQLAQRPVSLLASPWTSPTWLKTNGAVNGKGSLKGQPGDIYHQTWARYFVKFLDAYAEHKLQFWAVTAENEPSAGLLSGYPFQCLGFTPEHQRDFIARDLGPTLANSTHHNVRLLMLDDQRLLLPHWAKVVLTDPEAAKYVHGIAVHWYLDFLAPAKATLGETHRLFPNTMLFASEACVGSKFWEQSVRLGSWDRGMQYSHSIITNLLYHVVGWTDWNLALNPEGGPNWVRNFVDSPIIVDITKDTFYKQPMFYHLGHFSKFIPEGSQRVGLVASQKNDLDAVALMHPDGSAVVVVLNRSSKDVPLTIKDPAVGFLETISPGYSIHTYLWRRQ
The assay can be described thus: Glucocerebrosidase (Gcase) activation assay, 4-methylumbelliferyl-beta-D-glucopyranoside substrate, fluorescence. Type of assay: biochemical. Particulars: 10 nM GCase, 100 nM saposin C; for activation at 0.1 µM / activation at 1 µM: 0.25 h; for activation at 0.1 µM: pH 4.7, test compound at 0.1 μM, read-out: Percent Gcase Activation 0.1 μM Test Compound; for activation at 1 µM: pH 4.7, test compound at 1.0 μM, read-out: Percent Gcase Activation 1 μM Test Compound; for Percent Gcase Activation 0.1 μM Test Compound: test compound at 0.1 μM; for Percent Gcase Activation 0.1 μM Test Compound / Percent Gcase Activation 1 μM Test Compound: pH 4.7; for Percent Gcase Activation 1 μM Test Compound: test compound at 1.0 μM. On the procedure: The ability of exemplary compounds to activate glucocerebrosidase (Gcase) was measured.
A 484 μL aliquot of a 1.0 mg/mL solution of phosphatidylserine (PS) (Sigma P7769) in chloroform was evaporated under a stream of nitrogen for 1 hour. The lipid film was dissolved over 4 minutes of vigorous vortexing in 40 mL of 176 mM K2HPO4/50 mM citric acid (pH 4.7) containing 7.5 μL of triton X-100, resulting in a mixed micellar preparation with a composition of 0.32 mM triton and 0.37 mol % PS. 4-Methylumbelliferyl-beta-D-glucopyranoside (ACROS-337025000) was dissolved in the micellar solution to a final concentration of 2 mM for use as the reaction substrate.
Test compounds were diluted to the desired concentrations with dimethylsulfoxide (DMSO) from 10 mM stocks, and 0.41 μL of the DMSO compound mixture was added to 100 μL of micellar solution containing 10 nM GCase and 100 nM saposin C (Enzo ALX-201-262-C050). Pre-incubation was allowed to occur for 30 minutes at room temperature, after which the reaction was initiated by combining 25 μL of substrate solution with 25 μL of compound/GCase/saposin mixture. The reaction proceeded for 15 minutes at room temperature and was stopped by adding 150 μL of 1M glycine, pH 12.5. The endpoint of the reaction was monitored by measuring fluorescence intensity (excitation: 365 nm; emission: 440 nm) on a SpectraMax i3 instrument (Molecular Devices). Test compounds were screened at 1.0 and 0.1 μM final concentration, and subsequent 8-point dose response curves were obtained using 3-fold dilutions from a maximum final concentration of 5 μM.
For experiments in which the test compound was used at a concentration of 1.0 μM, the symbol “+” indicates less than 30% Gcase activation; the symbol “++” indicates Gcase activation in the range of 30% up to 60%; and the symbol “+++” indicates Gcase activation greater than 60%. For experiments in which the test compound was used at a concentration of 0.1 μM, the symbol “*” indicates less than 10% Gcase activation; the symbol “**” indicates Gcase activation in the range of 10% up to 20%; and the symbol “***” indicates greater than 20% Gcase activation.

From patent publication US11124516B2, “Pyrrolo[1,2-A]pyrimidinyl carboxamide compounds and their use in the treatment of medical disorders” (Bial—Biotech Investments, Inc., priority 2016, dated 2021) come the findings set out here.

For `COCc1cc(C(F)F)n2ccc(C(=O)NC3(c4cc(F)cc(F)c4)CC3)c2n1` [III-9], the activation at 0.1 µM is under 10% and the activation at 1 µM was under 30%.
For `CCCCO[C@H]1CC[C@H](NC(=O)c2ccn3c(C)cc(C4CCOCC4)nc23)CC1` [III-32], the activation at 0.1 µM is under 10% and the activation at 1 µM lay in the range of 30 to 60%.
Regarding `Cc1cc(-c2ncccn2)nc2c(C(=O)NC(C)(C)C3CC3)ccn12` [III-43], the activation at 0.1 µM is 10 to 20% and the activation at 1 µM was over 60%.
Turning to `Cc1cn2ccc(C(=O)NC(C)(C)C3CC3)c2nc1-c1ccc(F)cc1` [III-50], the activation at 0.1 µM is under 10% and the activation at 1 µM was over 60%.
Take `COCC(NC(=O)c1ccn2c(C)cc(C)nc12)C1CC1` (stereo not shown) [III-66]: the activation at 0.1 µM was under 10% and the activation at 1 µM is under 30%.
On to `Cc1cc(C)n2ccc(C(=O)NC(C)C3CCCCC3)c2n1` (stereo not shown) [III-67], for which the “Percent Gcase Activation 0.1 μM Test Compound” value was “*** (greater than 20% Gcase activation)” and the “Percent Gcase Activation 1 μM Test Compound” value is recorded as “+++ (Gcase activation greater than 60%)”.
With `COCC(C)(NC(=O)c1ccn2c(C)cc(C)nc12)c1ccccc1` (stereo not shown) [III-68], the activation at 0.1 µM is under 10% and the activation at 1 µM was over 60%.
Consider `Cc1cc(C)n2ccc(C(=O)NC(C)C3CCCC3)c2n1` (stereo not shown) [III-69], for which the activation at 0.1 µM fell in the range of 10 to 20% and the activation at 1 µM was over 60%.
Take `Cc1cc(C)n2ccc(C(=O)NC(CO)C34CC5CC(CC(C5)C3)C4)c2n1` (stereo not shown) [IV-34]: the activation at 0.1 µM was under 10% and the activation at 1 µM lay in the range of 30 to 60%.
Regarding `Cc1cc(C)n2ccc(C(=O)NC(C)C3COc4ccccc4O3)c2n1` (stereo not shown) [IV-36], the “Percent Gcase Activation 0.1 μM Test Compound” value was “* (less than 10% Gcase activation)” and the “Percent Gcase Activation 1 μM Test Compound” value was “+ (less than 30% Gcase activation)”.
On to `Cc1cc(C)n2ccc(C(=O)N[C@@H](C)c3nc4ccccc4n3C)c2n1` [IV-37], for which the activation at 0.1 µM was under 10% and the activation at 1 µM was under 30%.
Turning to `Cc1cc(C)n2ccc(C(=O)NC(C)c3ccc(-c4cccnc4)cc3)c2n1` (stereo not shown) [IV-43], the activation at 0.1 µM was under 10% and the activation at 1 µM lay within 30 to 60%.
In the case of `CCC(NC(=O)c1ccn2c(C)cc(C)nc12)c1ncccc1C` (stereo not shown) [IV-57], the activation at 0.1 µM is under 10% and the activation at 1 µM is under 30%.
`COc1ccccc1C(C)NC(=O)c1ccn2c(C)cc(C)nc12` (stereo not shown) [IV-60]: the activation at 0.1 µM is over 20% and the activation at 1 µM was over 60%.
In the case of `Cc1cc(C)n2ccc(C(=O)NC(C)c3ccccc3C)c2n1` (stereo not shown) [IV-63], the activation at 0.1 µM is over 20% and the activation at 1 µM is over 60%.
Take `Cc1cc(C)n2ccc(C(=O)NC(C)c3ncc(-c4ccccc4)o3)c2n1` (stereo not shown) [IV-65]: the activation at 0.1 µM was 10 to 20% and the activation at 1 µM was over 60%.
With `Cc1cc(C)n2ccc(C(=O)NC(C)c3ccccc3-n3cccn3)c2n1` (stereo not shown) [IV-67], the activation at 0.1 µM is under 10% and the activation at 1 µM was 30 to 60%.
As to `Cc1cc(C)n2ccc(C(=O)NC(C)c3ccc(-n4cccn4)cc3)c2n1` (stereo not shown) [IV-68], the activation at 0.1 µM lay within 10 to 20% and the activation at 1 µM is over 60%.
As for `Cc1cc(C)n2ccc(C(=O)NC(C)c3nc(C4CCCCC4)no3)c2n1` (stereo not shown) [IV-69], the activation at 0.1 µM fell in the range of 10 to 20% and the activation at 1 µM is over 60%.
On to `Cc1cc(C)n2ccc(C(=O)NC(C)c3ccccc3-c3ccccc3)c2n1` (stereo not shown) [IV-70], for which the activation at 0.1 µM was under 10% and the activation at 1 µM was over 60%.
In the case of `CCC(NC(=O)c1ccn2c(C)cc(C)nc12)C12CC3CC(C1)C(C3)C2` (stereo not shown) [IV-72], the activation at 0.1 µM was over 20% and the activation at 1 µM was over 60%.
On to `COc1ccc(F)cc1C(C)NC(=O)c1ccn2c(C)cc(C)nc12` (stereo not shown) [IV-74], for which the activation at 0.1 µM was over 20% and the activation at 1 µM is over 60%.
As for `Cc1cc(C)n2ccc(C(=O)NC(C)c3cccc(-n4cccn4)c3)c2n1` (stereo not shown) [IV-75], the activation at 0.1 µM fell in the range of 10 to 20% and the activation at 1 µM is over 60%.
The like results for `Cc1cc(C)n2ccc(C(=O)NC(C)c3nnn(C4CC4)n3)c2n1` (stereo not shown) [IV-76] were, in that order, under 10% and under 30%.
Regarding `Cc1cc(C)n2ccc(C(=O)NC(C)c3ccc(-c4ccccc4)cc3)c2n1` (stereo not shown) [IV-77], the activation at 0.1 µM was over 20% and the activation at 1 µM is over 60%.
In the case of `Cc1cc(C)n2ccc(C(=O)NC(C)c3nnn(-c4ccccc4)n3)c2n1` (stereo not shown) [IV-80], the activation at 0.1 µM was under 10% and the activation at 1 µM is under 30%.
Turning to `Cc1cc(C)n2ccc(C(=O)NC(Cc3ccccc3)c3ccccc3)c2n1` (stereo not shown) [IV-81], the activation at 0.1 µM was over 20% and the activation at 1 µM was over 60%.
In the case of `Cc1cc(C)n2ccc(C(=O)NC(C)C3COc4ccccc4O3)c2n1` (stereo not shown) [IV-82], the activation at 0.1 µM is under 10% and the “Percent Gcase Activation 1 μM Test Compound” value is on record as “+++ (Gcase activation greater than 60%)”.
Take `CCC(NC(=O)c1ccn2c(C)cc(C)nc12)c1ccc(OC)cc1` (stereo not shown) [IV-83]: the activation at 0.1 µM was over 20% and the activation at 1 µM is over 60%.
For `Cc1cc(C)n2ccc(C(=O)N[C@H](C)c3ccc4c(c3)OCO4)c2n1` [IV-84], in that order: 10 to 20% and over 60%.
For the compound `Cc1cc(C)n2ccc(C(=O)NC(C)c3nc4ccccc4n3C)c2n1` (stereo not shown) [IV-85], the activation at 0.1 µM was under 10% and the activation at 1 µM was under 30%.
Regarding `CCC(NC(=O)c1ccn2c(C)cc(C)nc12)c1nc2ccccc2[nH]1` (stereo not shown) [IV-86], the activation at 0.1 µM was under 10% and the activation at 1 µM was under 30%.
Consider `Cc1cc(C)n2ccc(C(=O)NC(C)C3Oc4ccccc4C3C)c2n1` (stereo not shown) [IV-87], for which the activation at 0.1 µM was in the range of 10 to 20% and the activation at 1 µM is over 60%.
In the case of `CCOc1ccc(C(C)NC(=O)c2ccn3c(C)cc(C)nc23)cc1` (stereo not shown) [IV-88], the activation at 0.1 µM was over 20% and the activation at 1 µM was over 60%.
The like results for `Cc1cc(C)n2ccc(C(=O)NC(C)C34CC5CC(C3)C(C5)C4)c2n1` (stereo not shown) [IV-89] were, in that order, over 20% and over 60%.
For `Cc1cc(C)n2ccc(C(=O)NC(CO)c3ccc4ccccc4c3)c2n1` (stereo not shown) [IV-90], the activation at 0.1 µM is under 10% and the activation at 1 µM is under 30%.
For `Cc1ccc(C(CO)NC(=O)c2ccn3c(C)cc(C)nc23)c(C)c1` (stereo not shown) [IV-91], the activation at 0.1 µM is under 10% and the activation at 1 µM was under 30%.
With `Cc1cc(C)n2ccc(C(=O)NC(CO)c3cccc(C)c3C)c2n1` (stereo not shown) [IV-92], the activation at 0.1 µM is under 10% and the activation at 1 µM was under 30%.
For `Cc1cc(C)n2ccc(C(=O)NC(CO)c3ccc(C(C)C)cc3)c2n1` (stereo not shown) [IV-93], in that order: under 10% and under 30%.
For `Cc1cc(C)n2ccc(C(=O)NC(CO)c3cccc4ccccc34)c2n1` (stereo not shown) [IV-94], the activation at 0.1 µM is under 10% and the activation at 1 µM was in the range of 30 to 60%.
Take `Cc1cc(C)n2ccc(C(=O)N[C@H](C)c3cccc4c3CCCC4)c2n1` [IV-95]: the activation at 0.1 µM was in the range of 10 to 20% and the activation at 1 µM is over 60%.
As to `Cc1cc(C)n2ccc(C(=O)NC(C)(C)c3cccc(Cl)c3)c2n1` [IV-96], the activation at 0.1 µM was over 20% and the activation at 1 µM is over 60%.
Consider `Cc1cc(C)n2ccc(C(=O)N[C@H](C)c3ccc(F)cc3)c2n1` [IV-97], for which the activation at 0.1 µM lay within 10 to 20% and the activation at 1 µM is over 60%.
For `CCC(=O)Nc1ccc(C(C)NC(=O)c2ccn3c(C)cc(C)nc23)cc1` (stereo not shown) [IV-98], in that order: over 20% and over 60%.
